Assay results as given in patent publication US20250197374A1, “WEE1 DEGRADING COMPOUNDS AND USES THEREOF” (BRISTOL-MYERS SQUIBB COMPANY, priority 2023, published 2025).
pEC50: −log10 of the molar value.

Columns and labels:
Format in all cases: cell-based
[1] = target: T1, WEE1 (Homo sapiens, UniProt P30291+Q96SW2); assay: WEE1-ePL degradation assay (293T-LentiX, InCELL Hunter luminescence, 4 hr); details: for DC50: LentiX-HEK293T cells expressing WEE1-ePL, 4 hr incubation, read-out: 293T-LentiX WEE1-ePL Degradation 4 hr EC50; for 293T-LentiX WEE1-ePL Degradation 4 hr YMin (%): lower limit of fit, % of DMSO control signal remaining
T1 construct: C-terminal ePL-tagged (DiscoverX, Fremont, CA) full-length WEE1 expression construct; expressed in transfected cells; host or cells: LentiX-HEK293T (Invitrogen), lentivirally transduced; the cells also over-express GSPT1-GN
How it was run: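 EC50 comes from a four-parameter logistic fit of ePL luminescence (InCELL Hunter), with DMSO control defining Ymax. Compounds ran as 10-point 3-fold dilutions from 1 or 10 µM for 4 h at 37 °C. Cells were HEK293T-LentiX with ePL-tagged full-length WEE1 and over-expressed Cereblon-resistant GSPT1-GN.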

[2] = system: MKN45 cells; assay: MKN45 cell proliferation assay (Cell-Titer-Glo, 120 hr); details: for pEC50: Homo sapiens, MKN-45, 120 h, read-out: MKN45 Cell Prolif. 120 hr EC50; for MKN45 Cell Prolif. 120 hr YMin (%): minimal percent of DMSO control observed
How it was run: (§1)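 Growth inhibition was read as CellTiter-Glo luminescence after 120 h at 37 °C in RPMI/10% FBS, with 400 MKN45 or 800 MDA-MB-231 cells seeded per well. Compounds were tested in 10-point half-log series starting at 1 or 10 uM (0.1% DMSO), in triplicate for MKN45 and duplicate for MDA-MB-231. EC50 values are four-parameter fits to %DMSO control, and Ymin-obs is the minimal observed %DMSO.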

[3] = system: MDA-MB-231 cells; assay: MDA-MB-231 cell proliferation assay (Cell-Titer-Glo, 120 hr); details: for pEC50: Homo sapiens, MDA-MB-231, 120 h, read-out: MDA-MB 231 Cell Prolif. 120 hr EC50; for MDA-MB 231 Cell Prolif. 120 hr YMin (%): minimal percent of DMSO control observed
How it was run: as §1

T1 sequence (P30291 whole entry): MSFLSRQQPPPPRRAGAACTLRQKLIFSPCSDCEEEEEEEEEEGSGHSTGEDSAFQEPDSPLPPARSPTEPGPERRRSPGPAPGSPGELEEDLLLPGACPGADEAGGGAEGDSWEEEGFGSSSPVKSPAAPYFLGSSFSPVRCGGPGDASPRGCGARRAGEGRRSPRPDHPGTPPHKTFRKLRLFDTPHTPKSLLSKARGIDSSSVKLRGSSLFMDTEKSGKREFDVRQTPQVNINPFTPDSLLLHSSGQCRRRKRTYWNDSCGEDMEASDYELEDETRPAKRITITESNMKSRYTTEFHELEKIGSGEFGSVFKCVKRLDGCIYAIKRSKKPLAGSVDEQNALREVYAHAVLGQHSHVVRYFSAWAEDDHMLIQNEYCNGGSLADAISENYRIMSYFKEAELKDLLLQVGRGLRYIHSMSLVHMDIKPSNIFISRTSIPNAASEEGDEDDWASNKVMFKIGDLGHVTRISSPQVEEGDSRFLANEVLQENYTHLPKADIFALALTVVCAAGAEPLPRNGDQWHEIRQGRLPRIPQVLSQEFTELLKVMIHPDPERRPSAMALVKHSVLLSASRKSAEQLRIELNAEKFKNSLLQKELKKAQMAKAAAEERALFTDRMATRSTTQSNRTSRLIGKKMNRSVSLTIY
T1 sequence (Q96SW2 whole entry): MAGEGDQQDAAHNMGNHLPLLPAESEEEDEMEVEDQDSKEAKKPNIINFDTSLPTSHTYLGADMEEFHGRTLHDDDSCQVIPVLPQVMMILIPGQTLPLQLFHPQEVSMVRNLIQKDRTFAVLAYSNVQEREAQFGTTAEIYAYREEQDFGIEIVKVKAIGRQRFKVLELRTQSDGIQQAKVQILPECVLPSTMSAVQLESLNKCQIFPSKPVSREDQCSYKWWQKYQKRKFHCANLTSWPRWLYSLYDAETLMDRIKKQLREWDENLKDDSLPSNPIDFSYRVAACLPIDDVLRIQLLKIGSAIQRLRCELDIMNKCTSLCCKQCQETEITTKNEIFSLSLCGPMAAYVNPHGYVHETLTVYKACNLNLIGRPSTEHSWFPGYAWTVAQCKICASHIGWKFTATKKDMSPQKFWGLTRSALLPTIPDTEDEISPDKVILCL
T1 sequence (Q16531 whole entry partner): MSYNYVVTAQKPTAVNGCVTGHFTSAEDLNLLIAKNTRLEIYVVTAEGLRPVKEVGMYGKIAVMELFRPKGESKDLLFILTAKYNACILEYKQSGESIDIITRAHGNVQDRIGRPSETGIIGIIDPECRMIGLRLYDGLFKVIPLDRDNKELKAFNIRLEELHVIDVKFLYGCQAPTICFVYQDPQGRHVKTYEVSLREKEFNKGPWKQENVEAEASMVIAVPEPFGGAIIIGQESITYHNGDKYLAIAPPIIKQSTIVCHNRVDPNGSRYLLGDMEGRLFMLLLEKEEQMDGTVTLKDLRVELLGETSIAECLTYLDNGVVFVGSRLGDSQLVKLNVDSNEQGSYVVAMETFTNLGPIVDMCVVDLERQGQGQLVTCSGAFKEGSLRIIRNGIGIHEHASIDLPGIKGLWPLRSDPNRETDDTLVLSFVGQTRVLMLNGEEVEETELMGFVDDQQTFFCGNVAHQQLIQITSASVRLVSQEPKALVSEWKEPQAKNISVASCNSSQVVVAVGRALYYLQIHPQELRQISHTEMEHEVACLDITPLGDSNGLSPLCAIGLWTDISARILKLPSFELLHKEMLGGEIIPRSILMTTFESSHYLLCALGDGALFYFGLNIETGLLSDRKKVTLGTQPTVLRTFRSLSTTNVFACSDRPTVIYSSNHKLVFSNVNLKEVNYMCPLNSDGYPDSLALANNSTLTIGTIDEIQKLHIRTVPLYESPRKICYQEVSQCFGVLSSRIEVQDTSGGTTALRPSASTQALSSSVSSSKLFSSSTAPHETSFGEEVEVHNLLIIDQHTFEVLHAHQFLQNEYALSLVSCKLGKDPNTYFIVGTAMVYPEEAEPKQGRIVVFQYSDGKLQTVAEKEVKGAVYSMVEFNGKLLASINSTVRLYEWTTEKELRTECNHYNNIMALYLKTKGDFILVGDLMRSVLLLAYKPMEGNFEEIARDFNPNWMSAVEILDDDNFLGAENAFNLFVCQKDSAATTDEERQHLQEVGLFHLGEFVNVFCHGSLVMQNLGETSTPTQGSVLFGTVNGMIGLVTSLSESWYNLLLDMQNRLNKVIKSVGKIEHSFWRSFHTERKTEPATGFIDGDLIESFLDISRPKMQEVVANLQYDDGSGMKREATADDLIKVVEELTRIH

Compound	DC50 [1]	293T-LentiX WEE1-ePL Degradation 4 hr YMin (%) [1]	pEC50 [2]	MKN45 Cell Prolif. 120 hr YMin (%) [2]	pEC50 [3]	MDA-MB 231 Cell Prolif. 120 hr YMin (%) [3]
COC[C@@H]1CN(Cc2ccc3ncc(N4CCOCC4)cc3c2)C[C@H]1Oc1ccc2c(c1)CN([C@H]1CCC(=O)NC1=O)C2=O [Example 29, (3S)-3-(5-{[(3S,4S)-4-(methoxymethyl)-1-{[3-(morpholin-4-yl)quinolin-6-yl]methyl}pyrrolidin-3-yl]oxy}-1-oxo-2,3-dihydro-1H-isoindol-2-yl)piperidine-2,6-dione]	1 nM	26.4%	8.70	8.8%	7.60	17.8%
COC[C@@H]1CN(Cc2ccc3nc(C4CCN(C(C)=O)C(C)(C)C4)ncc3c2)C[C@H]1Oc1ccc2c(c1)CN([C@H]1CCC(=O)NC1=O)C2=O (stereo partly drawn) [Example 82, (3S)-3-(5-{[(3S,4S)-1-{[2-(1-acetyl-2,2-dimethylpiperidin-4-yl)quinazolin-6-yl]methyl}-4-(methoxymethyl)pyrrolidin-3-yl]oxy}-1-oxo-2,3-dihydro-1H-isoindol-2-yl)piperidine-2,6-dione]	2 nM	27.5%	8.70	9.0%	7.59	17.9%
COC[C@@H]1CN(Cc2cc(F)c3nc(N4CCC(O)CC4)ccc3c2)C[C@H]1Oc1ccc2c(c1)CN([C@H]1CCC(=O)NC1=O)C2=O [Example 64, (S)-3-(5-(((3S,4S)-1-((8-fluoro-2-(4-hydroxypiperidin-1-yl)quinolin-6-yl)methyl)-4-(methoxymethyl)pyrrolidin-3-yl)oxy)-1-oxoisoindolin-2-yl)piperidine-2,6-dione]	1 nM	28.5%	8.70	8.8%	7.64	17.1%
COC[C@@H]1CN(Cc2cc(F)c3nc(C4CCOC(C)(C)C4)ncc3c2)C[C@H]1Oc1ccc2c(c1)CN([C@H]1CCC(=O)NC1=O)C2=O (stereo partly drawn) [Example 91, (3S)-3-(5-{[(3S,4S)-1-{[2-(2,2-dimethyloxan-4-yl)-8-fluoroquinazolin-6-yl]methyl}-4-(methoxymethyl)pyrrolidin-3-yl]oxy}-1-oxo-2,3-dihydro-1H-isoindol-2-yl)piperidine-2,6-dione]	4 nM	27.1%	8.70	10.5%	6.98	9.6%
COC[C@@H]1CN(Cc2cc(F)c3nc(N4C[C@H]5CCO[C@H]5C4)ncc3c2)C[C@H]1Oc1ccc2c(c1)CN([C@H]1CCC(=O)NC1=O)C2=O (single isomer, unassigned) [Example 10, (S)-3-(5-(((3S,4S)-1-((8-fluoro-2-((3aR*,6aR*)-hexahydro-5H-furo[2,3-c]pyrrol-5-yl)quinazolin-6-yl)methyl)-4-(methoxymethyl)pyrrolidin-3-yl)oxy)-1-oxoisoindolin-2-yl)piperidine-2,6-dione]	2 nM	27.8%	8.70	10.6%	7.15	24.6%
COC[C@@H]1CN(Cc2cc(F)c3nc(N4CCOC5(COC5)C4)ncc3c2)C[C@H]1Oc1ccc2c(c1)CN([C@H]1CCC(=O)NC1=O)C2=O [Example 80, (3S)-3-(5-{[(3S,4S)-1-[(2-{2,5-dioxa-8-azaspiro[3.5]nonan-8-yl}-8-fluoroquinazolin-6-yl)methyl]-4-(methoxymethyl)pyrrolidin-3-yl]oxy}-1-oxo-2,3-dihydro-1H-isoindol-2-yl)piperidine-2,6-dione]	2 nM	29.7%	8.70	10.3%	7.38	23.5%
COC[C@@H]1CN(Cc2cc(F)c3nc(C4CCN(C5COC5)CC4)ccc3c2)C[C@H]1Oc1ccc2c(c1)CN([C@H]1CCC(=O)NC1=O)C2=O [Example 143, (3S)-3-(5-{[(3S,4S)-1-({8-fluoro-2-[1-(oxetan-3-yl)piperidin-4-yl]quinolin-6-yl}methyl)-4-(methoxymethyl)pyrrolidin-3-yl]oxy}-1-oxo-2,3-dihydro-1H-isoindol-2-yl)piperidine-2,6-dione]	1 nM	27.3%	9.00	8.9%	7.57	35.5%
